pIC50: −log10 of the molar value.
Experiments:
[1] = organism: Homo sapiens; experiment: Selectivity ratio of IC50 for inhibition of CDK1/cyclin B (unknown origin) to IC50 for inhibition recombinant human N-terminal GST-tagged full-length CDK2/Flag-tagged cyclinE1 expressed in baculovirus expression system
[2] = target: T1, Cyclin-dependent kinase 2 (Homo sapiens, UniProt P24941); experiment: Inhibition of CDK2 in human COV318 cells incubated for overnight in presence of human whole blood by HTRF assay; assay type: cell-based
[3] = target: Cyclin-dependent kinase 2/cyclin E1 (Homo sapiens, UniProt P24941); experiment: Inhibition of recombinant human N-terminal GST-tagged full-length CDK2/Flag-tagged cyclinE1 expressed in baculovirus expression system using eIF4E-binding protein-1 peptide as substrate incubated for 1 hr in presence of ATP by HTRF assay
[4] = organism: Homo sapiens; experiment: Selectivity ratio of IC50 for inhibition of CDK6/cyclin D1 (unknown origin) to IC50 for inhibition recombinant human N-terminal GST-tagged full-length CDK2/Flag-tagged cyclinE1 expressed in baculovirus expression system
[5] = organism: Homo sapiens; experiment: Selectivity ratio of IC50 for inhibition of CDK4/cyclin D1 (unknown origin) to IC50 for inhibition recombinant human N-terminal GST-tagged full-length CDK2/Flag-tagged cyclinE1 expressed in baculovirus expression system
[6] = target: Cyclin-dependent kinase 1 (Homo sapiens, UniProt P06493); experiment: Inhibition of CDK1 in human OVCAR3 cells incubated for 30 mins in presence of pNPM T199 by western blot analysis; assay type: cell-based, OVCAR-3
Cyclin-dependent kinase 1, sequence (P06493 whole entry): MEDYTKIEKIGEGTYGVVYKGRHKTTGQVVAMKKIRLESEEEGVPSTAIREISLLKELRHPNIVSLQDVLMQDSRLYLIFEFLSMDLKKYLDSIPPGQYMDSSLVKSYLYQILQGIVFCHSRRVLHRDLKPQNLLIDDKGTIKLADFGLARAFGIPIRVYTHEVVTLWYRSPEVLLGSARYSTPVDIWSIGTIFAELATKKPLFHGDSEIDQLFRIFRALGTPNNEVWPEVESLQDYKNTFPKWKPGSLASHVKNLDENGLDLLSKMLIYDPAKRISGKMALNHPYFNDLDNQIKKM

[7] = Intrinsic clearance in human liver microsomes at 1 uM measured upto 30 mins by LC/MS analysis; assay type: ADME, Microsome; details: read-out: CLH (converted)
[8] = target: T1, Cyclin-dependent kinase 2; experiment: Inhibition of CDK2 in human COV318 cells incubated for overnight in presence of phospho-Rb by HTRF assay; assay type: cell-based
[9] = organism: Homo sapiens; experiment: Selectivity ratio of IC50 for inhibition of CDK1 in human OVCAR3 cells to IC50 for inhibition of CDK2 in human COV318 cells; assay type: cell-based
[10] = target: T2, Cytochrome P450 2C8 (Homo sapiens, UniProt P10632); experiment: Inhibition of CYP2C8 (unknown origin) at >25 uM; assay type: ADME
T2 sequence (P10632 whole entry): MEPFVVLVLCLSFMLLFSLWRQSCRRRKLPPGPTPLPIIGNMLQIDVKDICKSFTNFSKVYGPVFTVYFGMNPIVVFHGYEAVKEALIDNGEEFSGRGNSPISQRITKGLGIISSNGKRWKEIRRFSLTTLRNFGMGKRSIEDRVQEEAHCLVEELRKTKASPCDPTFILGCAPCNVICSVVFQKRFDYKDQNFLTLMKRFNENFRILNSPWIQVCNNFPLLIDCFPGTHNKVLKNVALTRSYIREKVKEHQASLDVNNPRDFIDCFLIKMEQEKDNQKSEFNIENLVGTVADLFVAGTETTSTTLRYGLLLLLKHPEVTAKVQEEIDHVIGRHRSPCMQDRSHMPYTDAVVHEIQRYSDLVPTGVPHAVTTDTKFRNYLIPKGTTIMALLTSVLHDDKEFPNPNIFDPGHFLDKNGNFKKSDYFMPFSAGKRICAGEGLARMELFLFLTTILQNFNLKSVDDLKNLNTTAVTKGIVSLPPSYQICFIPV

[11] = target: T3, Cytochrome P450 2B6 (Homo sapiens, UniProt P20813); experiment: Inhibition of CYP2B6 (unknown origin) at >25 uM; assay type: ADME
T3 sequence (P20813 whole entry): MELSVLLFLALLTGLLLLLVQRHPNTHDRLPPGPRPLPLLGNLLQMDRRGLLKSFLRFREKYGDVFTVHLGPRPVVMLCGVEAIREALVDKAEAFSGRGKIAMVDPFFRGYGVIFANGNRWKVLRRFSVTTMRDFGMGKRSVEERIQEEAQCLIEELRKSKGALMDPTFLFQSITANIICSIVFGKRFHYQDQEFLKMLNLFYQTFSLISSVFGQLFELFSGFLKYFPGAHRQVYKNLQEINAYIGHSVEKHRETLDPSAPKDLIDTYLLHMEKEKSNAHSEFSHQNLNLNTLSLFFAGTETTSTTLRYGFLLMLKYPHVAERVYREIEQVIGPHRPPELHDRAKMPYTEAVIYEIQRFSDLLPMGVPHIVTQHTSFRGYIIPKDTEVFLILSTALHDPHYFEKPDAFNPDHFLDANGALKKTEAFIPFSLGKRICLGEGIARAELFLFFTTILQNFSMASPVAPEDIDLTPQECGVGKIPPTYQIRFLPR

[12] = Hepatic blood flow in Cynomolgus monkey at 0.3 mg/kg, iv measured upto 24 hrs by LC-MS/MS analysis; assay type: ADME, organism-based, Macaca fascicularis; details: in vivo
[13] = organism: Homo sapiens; experiment: Selectivity ratio of IC50 for inhibition of CDK4 (unknown origin) to IC50 for inhibition recombinant human N-terminal GST-tagged full-length CDK2/Flag-tagged cyclinE1 expressed in baculovirus expression system
[14] = target: Cytochrome P450 2C19 (Homo sapiens, UniProt P33261); experiment: Inhibition of CYP2C19 (unknown origin) at >25 uM; assay type: ADME
Cytochrome P450 2C19, sequence (P33261 whole entry): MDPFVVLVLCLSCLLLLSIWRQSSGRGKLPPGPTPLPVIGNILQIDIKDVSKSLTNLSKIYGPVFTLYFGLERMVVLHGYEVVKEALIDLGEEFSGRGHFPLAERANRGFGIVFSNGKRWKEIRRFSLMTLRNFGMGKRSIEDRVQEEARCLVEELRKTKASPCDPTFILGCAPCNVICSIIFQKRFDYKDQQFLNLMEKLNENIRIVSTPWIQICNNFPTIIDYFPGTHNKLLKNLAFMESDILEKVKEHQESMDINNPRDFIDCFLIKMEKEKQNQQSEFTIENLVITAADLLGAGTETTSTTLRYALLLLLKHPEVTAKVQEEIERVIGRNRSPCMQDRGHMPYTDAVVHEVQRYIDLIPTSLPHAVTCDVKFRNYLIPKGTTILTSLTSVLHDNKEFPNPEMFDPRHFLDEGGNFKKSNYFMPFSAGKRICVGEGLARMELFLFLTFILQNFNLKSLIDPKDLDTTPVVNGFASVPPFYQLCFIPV

[15] = AUC in Cynomolgus monkey at 2 mg/kg, po measured upto 24 hrs by LC-MS/MS analysis; assay type: ADME, organism-based, Macaca fascicularis; design: dose 2 mg/kg, time < 24 hrs, route po; details: in vivo
[16] = target: Cytochrome P450 2D6 (Homo sapiens, UniProt P10635); experiment: Inhibition of CYP2D6 (unknown origin) at >25 uM; assay type: ADME
Cytochrome P450 2D6, sequence (P10635 whole entry): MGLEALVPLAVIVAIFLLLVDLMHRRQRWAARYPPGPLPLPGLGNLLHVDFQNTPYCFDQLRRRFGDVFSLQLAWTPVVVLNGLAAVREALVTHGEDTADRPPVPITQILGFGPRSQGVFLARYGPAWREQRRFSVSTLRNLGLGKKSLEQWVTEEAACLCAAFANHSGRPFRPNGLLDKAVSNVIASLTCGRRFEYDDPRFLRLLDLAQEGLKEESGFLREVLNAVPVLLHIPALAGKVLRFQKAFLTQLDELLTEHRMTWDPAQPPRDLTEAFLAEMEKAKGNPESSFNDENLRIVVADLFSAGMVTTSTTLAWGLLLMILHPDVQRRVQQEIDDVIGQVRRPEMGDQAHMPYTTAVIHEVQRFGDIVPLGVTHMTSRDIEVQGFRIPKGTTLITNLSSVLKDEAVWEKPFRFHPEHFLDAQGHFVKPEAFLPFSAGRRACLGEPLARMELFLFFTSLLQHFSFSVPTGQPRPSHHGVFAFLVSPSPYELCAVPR

[17] = Oral bioavailability in Cynomolgus monkey at 2 mg/kg measured upto 24 hrs by LC-MS/MS analysis; assay type: ADME, organism-based, Macaca fascicularis; details: in vivo
[18] = target: hERG (KCNH2) (Homo sapiens, UniProt Q12809); experiment: Displacement of [3H]Dofetilide from human ERG at 10 uM incubated for 24 hrs by filter binding assay relative to control; assay type: toxicity; details: probe [3H]dofetilide
hERG (KCNH2), sequence (Q12809 whole entry): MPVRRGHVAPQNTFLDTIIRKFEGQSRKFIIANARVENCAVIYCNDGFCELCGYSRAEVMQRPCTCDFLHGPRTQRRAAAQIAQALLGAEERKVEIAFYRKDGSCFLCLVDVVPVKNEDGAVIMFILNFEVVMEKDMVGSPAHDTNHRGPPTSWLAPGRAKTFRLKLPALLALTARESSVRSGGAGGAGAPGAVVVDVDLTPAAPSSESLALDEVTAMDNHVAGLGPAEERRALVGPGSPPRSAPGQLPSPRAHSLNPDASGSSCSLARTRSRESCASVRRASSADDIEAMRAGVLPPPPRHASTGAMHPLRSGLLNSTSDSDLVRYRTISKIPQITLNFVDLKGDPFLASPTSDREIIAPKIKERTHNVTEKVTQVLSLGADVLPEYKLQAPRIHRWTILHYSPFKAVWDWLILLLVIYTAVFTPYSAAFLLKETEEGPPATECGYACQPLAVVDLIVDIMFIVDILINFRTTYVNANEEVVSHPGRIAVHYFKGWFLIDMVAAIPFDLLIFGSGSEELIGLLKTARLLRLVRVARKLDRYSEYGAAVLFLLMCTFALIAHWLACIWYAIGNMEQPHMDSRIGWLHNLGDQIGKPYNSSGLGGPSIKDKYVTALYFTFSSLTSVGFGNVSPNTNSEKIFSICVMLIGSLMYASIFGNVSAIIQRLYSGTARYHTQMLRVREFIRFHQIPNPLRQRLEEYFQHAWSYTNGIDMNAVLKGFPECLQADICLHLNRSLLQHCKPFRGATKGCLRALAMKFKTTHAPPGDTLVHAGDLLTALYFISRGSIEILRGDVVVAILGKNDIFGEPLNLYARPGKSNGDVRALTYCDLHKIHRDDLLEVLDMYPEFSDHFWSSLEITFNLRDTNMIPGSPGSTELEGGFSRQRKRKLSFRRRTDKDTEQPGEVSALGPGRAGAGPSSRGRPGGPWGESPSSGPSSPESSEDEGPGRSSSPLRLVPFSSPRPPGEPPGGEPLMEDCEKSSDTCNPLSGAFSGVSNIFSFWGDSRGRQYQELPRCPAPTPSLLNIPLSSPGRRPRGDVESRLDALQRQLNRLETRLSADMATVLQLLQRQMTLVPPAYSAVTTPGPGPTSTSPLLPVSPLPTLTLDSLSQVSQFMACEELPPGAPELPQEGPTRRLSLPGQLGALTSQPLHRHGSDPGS

[19] = Hepatic blood flow in Sprague-Dawley rat at 0.5 mg/kg, iv measured upto 24 hrs by LC-MS/MS analysis; assay type: ADME, organism-based; details: in vivo
[20] = organism: Homo sapiens; experiment: Selectivity ratio of IC50 for inhibition of CDK1 (unknown origin) to IC50 for inhibition recombinant human N-terminal GST-tagged full-length CDK2/Flag-tagged cyclinE1 expressed in baculovirus expression system
[21] = target: T4, Cytochrome P450 1A2 (Homo sapiens, UniProt P05177); experiment: Inhibition of CYP1A2 (unknown origin) at >25 uM; assay type: ADME
T4 sequence (P05177 whole entry): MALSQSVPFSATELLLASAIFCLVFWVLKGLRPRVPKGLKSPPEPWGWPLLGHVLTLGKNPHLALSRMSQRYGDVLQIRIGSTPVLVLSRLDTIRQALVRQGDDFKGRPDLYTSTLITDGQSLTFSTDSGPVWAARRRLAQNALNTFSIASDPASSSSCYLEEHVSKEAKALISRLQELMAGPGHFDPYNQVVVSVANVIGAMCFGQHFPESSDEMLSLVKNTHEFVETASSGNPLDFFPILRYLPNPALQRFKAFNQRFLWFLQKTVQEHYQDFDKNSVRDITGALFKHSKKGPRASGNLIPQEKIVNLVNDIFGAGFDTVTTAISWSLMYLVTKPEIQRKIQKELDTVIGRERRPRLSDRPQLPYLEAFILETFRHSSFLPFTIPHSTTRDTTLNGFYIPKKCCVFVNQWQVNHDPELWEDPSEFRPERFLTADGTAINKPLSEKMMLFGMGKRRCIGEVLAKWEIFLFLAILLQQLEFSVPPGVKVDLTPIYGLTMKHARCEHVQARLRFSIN

[22] = Oral bioavailability in Sprague-Dawley rat at 3 mg/kg measured upto 24 hrs by LC-MS/MS analysis; assay type: ADME, organism-based; details: in vivo
[23] = Volume of distribution at steady state in Sprague-Dawley rat at 0.5 mg/kg, iv measured upto 24 hrs by LC-MS/MS analysis; assay type: ADME, organism-based; details: in vivo
[24] = organism: Homo sapiens; experiment: Selectivity ratio of IC50 for inhibition of CDK7 (unknown origin) to IC50 for inhibition recombinant human N-terminal GST-tagged full-length CDK2/Flag-tagged cyclinE1 expressed in baculovirus expression system
[25] = Cmax in Cynomolgus monkey at 2 mg/kg, po measured upto 24 hrs by LC-MS/MS analysis; assay type: ADME, organism-based, Macaca fascicularis; design: dose 2 mg/kg, time < 24 hrs, route po; details: in vivo
[26] = Cmax in Sprague-Dawley rat at 3 mg/kg, po measured upto 24 hrs by LC-MS/MS analysis; assay type: ADME, organism-based; design: dose 3 mg/kg, time < 24 hrs, route po; details: in vivo
[27] = Volume of distribution at steady state in Cynomolgus monkey at 0.3 mg/kg, iv measured upto 24 hrs by LC-MS/MS analysis; assay type: ADME, organism-based, Macaca fascicularis; details: in vivo, read-out: Vdss
[28] = organism: Homo sapiens; experiment: Selectivity ratio of IC50 for inhibition of CDK9 (unknown origin) to IC50 for inhibition recombinant human N-terminal GST-tagged full-length CDK2/Flag-tagged cyclinE1 expressed in baculovirus expression system
[29] = Solubility of compound; assay type: physicochemical
[30] = target: Cytochrome P450 2C9 (Homo sapiens, UniProt P11712); experiment: Inhibition of CYP2C9 (unknown origin) at >25 uM; assay type: ADME
Cytochrome P450 2C9, sequence (P11712 whole entry): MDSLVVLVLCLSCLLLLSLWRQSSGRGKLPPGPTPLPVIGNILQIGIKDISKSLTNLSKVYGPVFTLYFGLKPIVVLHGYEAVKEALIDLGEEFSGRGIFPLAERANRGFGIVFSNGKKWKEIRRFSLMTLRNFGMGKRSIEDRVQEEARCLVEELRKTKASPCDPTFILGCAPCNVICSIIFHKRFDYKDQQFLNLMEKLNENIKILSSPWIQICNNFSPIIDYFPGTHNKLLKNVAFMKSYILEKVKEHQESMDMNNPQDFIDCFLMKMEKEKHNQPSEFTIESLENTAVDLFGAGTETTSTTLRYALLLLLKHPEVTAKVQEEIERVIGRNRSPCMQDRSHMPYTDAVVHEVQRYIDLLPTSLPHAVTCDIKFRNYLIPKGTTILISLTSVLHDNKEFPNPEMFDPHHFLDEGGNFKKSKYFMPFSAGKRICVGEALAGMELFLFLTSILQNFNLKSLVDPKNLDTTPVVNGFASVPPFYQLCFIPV

[31] = AUC in Sprague-Dawley rat at 3 mg/kg, po measured upto 24 hrs by LC-MS/MS analysis; assay type: ADME, organism-based; design: dose 3 mg/kg, time < 24 hrs, route po; details: in vivo
[32] = target: Cytochrome P450 3A4 (Homo sapiens, UniProt P08684); experiment: Inhibition of CYP3A4 (unknown origin) at >25 uM; assay type: ADME
Cytochrome P450 3A4, sequence (P08684 whole entry): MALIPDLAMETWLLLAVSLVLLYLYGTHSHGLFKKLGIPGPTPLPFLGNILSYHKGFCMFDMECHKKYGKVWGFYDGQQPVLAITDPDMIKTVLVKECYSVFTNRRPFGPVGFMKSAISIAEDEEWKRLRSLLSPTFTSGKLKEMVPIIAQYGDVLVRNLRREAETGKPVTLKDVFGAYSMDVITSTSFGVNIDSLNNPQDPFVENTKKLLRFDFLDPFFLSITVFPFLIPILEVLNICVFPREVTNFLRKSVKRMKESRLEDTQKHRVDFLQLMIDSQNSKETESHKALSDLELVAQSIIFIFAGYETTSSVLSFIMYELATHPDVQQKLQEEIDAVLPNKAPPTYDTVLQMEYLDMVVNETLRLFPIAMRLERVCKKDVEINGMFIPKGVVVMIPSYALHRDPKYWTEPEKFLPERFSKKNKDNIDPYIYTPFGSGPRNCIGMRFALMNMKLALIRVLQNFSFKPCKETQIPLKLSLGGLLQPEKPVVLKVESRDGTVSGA

[33] = organism: Homo sapiens; experiment: Selectivity ratio of IC50 for inhibition of CDK6 (unknown origin) to IC50 for inhibition recombinant human N-terminal GST-tagged full-length CDK2/Flag-tagged cyclinE1 expressed in baculovirus expression system
[34] = Metabolic stability in Sprague-Dawley rat liver microsomes assessed as remaining parent compound at 5 uM measured upto 30 mins by HPLC/MS analysis; assay type: ADME, Microsome; details: 0.5 h
[35] = Metabolic stability in human liver microsomes assessed as remaining parent compound at 5 uM measured upto 30 mins by HPLC/MS analysis; assay type: ADME, Microsome; details: liver microsomes, read-out: Stability
[36] = Metabolic stability in Cynomolgus monkey liver microsomes assessed as compound oxidation at 5 uM measured upto 30 mins by HPLC/MS analysis; assay type: ADME, Macaca fascicularis, Microsome; details: 0.5 h
[37] = Metabolic stability in Sprague-Dawley rat liver microsomes assessed as compound oxidation at 5 uM measured upto 30 mins by HPLC/MS analysis; assay type: ADME, Microsome; details: 0.5 h
[38] = Metabolic stability in Cynomolgus monkey liver microsomes assessed as remaining parent compound at 5 uM measured upto 30 mins by HPLC/MS analysis; assay type: ADME, Macaca fascicularis, Microsome; details: 0.5 h
[39] = Metabolic stability in human liver microsomes assessed as compound demethylation at 5 uM measured upto 30 mins by HPLC/MS analysis; assay type: ADME, Microsome; details: 0.5 h
[40] = Metabolic stability in Sprague-Dawley rat liver microsomes assessed as compound demethylation at 5 uM measured upto 30 mins by HPLC/MS analysis; assay type: ADME, Microsome; details: 0.5 h
[41] = Metabolic stability in Cynomolgus monkey liver microsomes assessed as compound demethylation at 5 uM measured upto 30 mins by HPLC/MS analysis; assay type: ADME, Macaca fascicularis, Microsome; details: 0.5 h
[42] = Metabolic stability in human liver microsomes assessed as compound oxidation at 5 uM measured upto 30 mins by HPLC/MS analysis; assay type: ADME, Microsome; details: liver microsomes, read-out: Drug metabolism

| Structure (SMILES) | pIC50 [2] | pIC50 [3] | Ratio IC50 [4] | Ratio IC50 [5] | predicted hepatic clearance at 1 µM [7] [mL/min/kg] | inhibition (INH) [10] | inhibition (INH) [11] | inhibition (INH) [14] | inhibition (INH) [16] | inhibition at 24 h, 10 µM [18] [%] | QH [19] [%] | inhibition (INH) [21] | bioavailability [22] [%] | Cmax [26] [nM] | solubility [29] [µg/mL] | inhibition (INH) [30] | AUC at 24 h [31] [µM·h] | inhibition (INH) [32] | also measured |
| --- | --- | --- | --- | --- | --- | --- | --- | --- | --- | --- | --- | --- | --- | --- | --- | --- | --- | --- | --- |
| NS(=O)(=O)c1ccc(Nc2ncc3c(n2)N(C2CCCC2)C(=O)C32CC2)cc1 | 5.12 | 8.40 | 7 | 5 | 13.3 | – | – | – | – | – | – | – | – | – | – | – | – | – | Ratio IC50 [1]: 250; pIC50 [6]: 5.92; pIC50 [8]: 8.31; Ratio IC50 [9]: 245 |
| Cn1cc(S(=O)(=O)N2CCC(Nc3ncc4c(n3)N([C@@H]3CCC[C@@H](O)C3)C(=O)C43CC3)CC2)cn1 | 6.50 | 8.70 | 35 | 110 | 16.7 | Active | Active | Active | Active | 7.2 | 96 | Active | 59 | 562 | > 400 | Active | 1.13 | Active | QH [12]: 48%; Ratio IC50 [13]: 110; AUC at 24 h [15]: 0.388 µM·h; bioavailability [17]: 12%; Ratio IC50 [20]: 660; Vd ([23]; Sprague-Dawley, read-out: Vdss): 2 L/kg; Ratio IC50 [24]: 1100; Cmax [25]: 56 nM; Vd [27]: 1.2 L/kg; Ratio IC50 [28]: 2500; Ratio IC50 [33]: 35 |
| [2H]C([2H])([2H])NS(=O)(=O)c1ccc(Nc2ncc3c(n2)N([C@@H]2CCC[C@@]2(C)O)C(=O)C32CC2)cc1 (relative stereo) | 6.13 | – | – | – | < 8.33 | Active | Active | Active | Active | 16 | > 100 | Active | 92 | 752 | > 400 | Active | 0.666 | Active | Stability [34]: 4.4%; remaining at 0.5 h, 5 µM [35]: 85%; Vdss ([23]; iv, 0.5 mg/kg, 24 h): 3.2 L/kg; Drug metabolism [36]: 12%; Drug metabolism [37]: 54%; Stability [38]: 20%; Drug metabolism [39]: 10%; Drug metabolism [40]: 23%; Drug metabolism [41]: 71%; metabolised at 0.5 h, 5 µM [42]: 5% |

Reference: ChEMBL document CHEMBL5126669, “Discovery of 5,7-Dihydro-6H-pyrrolo[2,3-d]pyrimidin-6-ones as Highly Selective CDK2 Inhibitors” (ACS Med Chem Lett, 2022)
